The nature of this series: Steady-state plasma LPV pharmacokinetics with and without African potato. The series is classed as in vivo, human. Particulars: for CLF (apparent clearance), arithmetic mean (SD): LPV; for AUC: AUCτ; for concentration at 12 h: Ctrough.
Where [1] appears, read: plasma LPV, steady state, day 21, LPV/r plus African potato, n = 16.
The mark [2] stands for this setting: plasma LPV, expressed as a percentage of the GM of LPV/r alone, n = 16.

In the case of `Cc1cccc(C)c1OCC(=O)N[C@@H](Cc1ccccc1)[C@@H](O)C[C@H](Cc1ccccc1)NC(=O)[C@H](C(C)C)N1CCCNC1=O` [LPV, Lopinavir], the “CLF (apparent clearance), arithmetic mean (SD)” value by setting is: (steady state, day 14, LPV/r alone, n = 16) 4.61 (1.56) l/h; (steady state, day 21, LPV/r plus African potato, n = 16) 4.64 (1.32) l/h. The same molecule registered a Cmax (human, plasma, oral) of 10100 ng/mL. For the same molecule, the AUC reads like this: (human, plasma, oral, arithmetic mean (SD), plasma LPV, steady state, day 14, LPV/r 400/100 mg twice daily alone, n = 16) 94400 ng·h/mL; (human, plasma, oral, arithmetic mean (SD), plasma LPV, steady state, day 21, LPV/r 400/100 mg twice daily plus African potato four capsules once daily for 7 days, n = 16) 93200 ng·h/mL. For the same molecule, the concentration at 12 h is 4850 ng/mL (human, plasma, oral, arithmetic mean (SD), plasma LPV, steady state, day 14, LPV/r alone, n = 16); 4900 ng/mL (human, plasma, oral, arithmetic mean (SD), plasma LPV, steady state, day 21, LPV/r plus African potato, n = 16); 4130 ng/mL (human, plasma, oral, geometric mean, plasma LPV, steady state, day 14, LPV/r alone, n = 16); 4380 ng/mL (human, plasma, oral, geometric mean, plasma LPV, steady state, day 21, LPV/r plus African potato, n = 16). Also, the “AUCτ, geometric mean” value runs as follows: (plasma LPV, steady state, day 14, LPV/r alone, n = 16) 90780 ng·h/mL; under setting [1], 89660 ng·h/mL. Moreover, the “Cmax, arithmetic mean (SD)” value under setting [1] is on record as 10.18 (2.25) μg/ml. Further, the “AUCτ, PE (point estimate of the ratio of geometric means of LPV/r plus African potato and LPV/r)” value under setting [2] is recorded as 98.77%. The “Cmax, PE (point estimate of the ratio of geometric means of LPV/r plus African potato and LPV/r)” value under setting [2] is recorded as 100.90%. The “Ctrough, PE (point estimate of the ratio of geometric means of LPV/r plus African potato and LPV/r)” value under setting [2] is on record as 105.98%.

The Cmax is the peak of the concentration-time curve. The AUC is concentration integrated over time.

These data come from paper PMC3776002 (International journal of infectious diseases : IJID : …, 2013).
